ChEMBL document CHEMBL5154913, “Phenyl Bis-Sulfonamide Keap1-Nrf2 Protein-Protein Interaction Inhibitors with an Alternative Binding Mode” (J Med Chem, 2022)
In brackets after ≈: the same amount, converted by molar mass.

Experiments:
ARPE-19 = assay: Cytotoxicity against human ARPE-19 cells assessed as reduction in cell viability at 1 uM incubated for 96 hrs by MTT assay relative to control; assay type: toxicity, cell-based; conditions: arpe-19, 96 h
[1] = Permeability of the compound across artificial membrane by IAM binding assay; assay type: ADME
[2] = Aqueous solubility of the compound at pH 7.4; assay type: physicochemical; conditions: aqueous medium

For `COC(=O)[C@]12CCC(C)(C)C[C@H]1[C@H]1C(=O)C=C3[C@@]4(C)C=C(C#N)C(=O)C(C)(C)[C@@H]4CC[C@@]3(C)[C@]1(C)CC2` [BARDOXOLONE METHYL], the Activity (ARPE-19) was “Toxic”.
With `COc1ccc(S(=O)(=O)N(CC(=O)O)c2ccc(N(CC(=O)O)S(=O)(=O)c3ccc(OC)cc3)c(OCc3cccc(OC)c3)c2)cc1` the “log K” value [1] was 1.83.
With `COc1ccc(S(=O)(=O)N(CC(=O)O)c2ccc(N(CC(=O)O)S(=O)(=O)c3ccc(OC)cc3)c(OCc3ccccc3)c2)cc1` the solubility [2] was 348 µg/mL (≈ 519 µM).
